In patent US20100298141A1, “SUBSTITUTED PYRIDINE N-OXIDE HERBICIDES” (E. I. DU PONT DE NEMOURS AND COMPANY, priority 2007, published 2010):

Tests used:
[1] = system: common groundsel; assay: Test F preemergence test; type: in vivo, Senecio vulgaris; conditions: scale 0 to 100
Procedure, shortened: (§1)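 Preemergence application to planted seeds, or postemergence to sugarcane plants; compound in non-phytotoxic solvent mix plus surfactant. Greenhouse, 14-21 days. Visual rating vs. controls.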

[2] = system: dallisgrass; assay: Test F preemergence test; type: in vivo, Paspalum dilatatum; conditions: scale 0 to 100
Procedure, shortened: as §1

[3] = system: kochia; assay: Test F preemergence test; type: in vivo, Kochia scoparia; conditions: scale 0 to 100
Procedure, shortened: as §1

[4] = system: itchgrass; assay: Test F preemergence test; type: in vivo, Rottboellia cochinchinensis; conditions: scale 0 to 100
Procedure, shortened: as §1

[5] = system: broadleaf signalgrass; assay: Test F preemergence test; type: in vivo, Brachiaria platyphylla; conditions: scale 0 to 100
Procedure, shortened: as §1

[6] = system: Virginia dayflower; assay: Test F preemergence test; type: in vivo, Commelina virginica; conditions: 16 g ai/ha, preemergence; scale 0 to 100
Source text: Seeds of plant species selected from bermudagrass (Cynodon dactylon), Surinam grass (Brachiaria decumbens), large crabgrass (Digitaria sanguinalis), green foxtail (Setaria viridis), goosegrass (Eleusine indica), johnsongrass (Sorghum halepense), kochia (Kochia scoparia), pitted morningglory (Ipomoea lacunosa), purple nutsedge (Cyperus rotundus), common ragweed (Ambrosia elation), mustard (Brassica nigra), guineagrass (Panicum maximum), […] (Paspalum dilatatum), barnyardgrass (Echinochloa crus-galli), southern sandbur (Cenchrus echinatus), common sowthistle (Sonchus oleraceous), prickly […] spinosa), Italian ryegrass (Lolium multiflorum), common purslane (Portulaca oleracea), broadleaf signalgrass (Brachiaria platyphylla), common groundsel (Senecio vulgaris), common chickweed (Stellaria media), Virginia dayflower (Commelina virginica), annual bluegrass (Poa annua), naked crabgrass (Digitaria nuda), […] cochinchinensis), quackgrass (Elytrigia repens), Canada horseweed (Conyza canadensis), field bindweed (Convolvulus arvensis), […] (Bidens bipinnata), common mallow (Malva sylvestris), Russian thistle (Salsola kali), and sugarcane (Saccharum officinarum) were planted and treated preemergence with test chemicals formulated in a non-phytotoxic solvent mixture which included a surfactant. At a different time, sugarcane was treated with postemergence applications of some of the test chemicals formulated in the same manner. Plants were approximately 3- to 4-leaf stage for the postemergence treatments. Treated plants and controls were maintained in a greenhouse for 14 to 21 days, after which time all species were compared to controls and visually evaluated. […] A dash (-) response means no test result.

[7] = system: goosegrass; assay: Test F preemergence test; type: in vivo, Eleusine indica; conditions: scale 0 to 100
Procedure, shortened: as §1

[8] = system: barnyardgrass; assay: Test A pre-/postemergence greenhouse test; type: in vivo, Echinochloa crus-galli; conditions: for Plant response rating, Barnyardgrass: 0 to 100 scale where 0 is no effect and 100 is complete control; for Barnyardgrass plant response rating: 0 to 100 scale
Procedure, shortened: (§2)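 Two application timings were run side by side in the greenhouse. Before emergence, compound went onto the soil surface of loam–sand pots as a directed spray; after emergence, plants at 2–10 cm and the one- to two-leaf stage were treated. Visual injury versus controls was rated at approximately day ten.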

[9] = system: purple nutsedge; assay: Test F preemergence test; type: in vivo, Cyperus rotundus; conditions: scale 0 to 100
Procedure, shortened: as §1

[10] = system: velvetleaf; assay: Test A pre-/postemergence greenhouse test; type: in vivo, Abutilon theophrasti; conditions: for Plant response rating, Velvetleaf: 0 to 100 scale where 0 is no effect and 100 is complete control; for Velvetleaf plant response rating: 0 to 100 scale
Procedure, shortened: as §2

[11] = system: johnsongrass; assay: Test F preemergence test; type: in vivo, Sorghum halepense; conditions: scale 0 to 100
Procedure, shortened: as §1

[12] = system: green foxtail; assay: Test C pre-/postemergence test; type: in vivo, Setaria viridis
Procedure, shortened: (§3)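 Compounds in a non-phytotoxic solvent with surfactant applied preemergence to seeded pots and, at the same time, postemergence to plants 2–18 cm tall (1- to 4-leaf stage). Paddy tests: pots flooded to 3 cm, compound applied into the water, depth held throughout.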

[13] = system: Italian ryegrass; assay: Test C pre-/postemergence test; type: in vivo, Lolium multiflorum
Procedure, shortened: as §3

[14] = Postemergence, 500 g ai/ha, 0 is no effect, 100 is complete control
[15] = Preemergence, 125 g ai/ha, 0 no effect, 100 complete control
[16] = 62 g ai/ha, Preemergence, scale 0 to 100
[17] = 125 g ai/ha, preemergence, scale 0 (no effect) to 100 (complete control)
[18] = Postemergence, 125 g ai/ha, scale 0 to 100, 0 no effect, 100 complete control
[19] = Postemergence, 250 g ai/ha, scale 0 to 100, 0 no effect, 100 complete control
[20] = Preemergence, 31 g ai/ha, scale 0 to 100 (0 no effect, 100 complete control)
[21] = preemergence, 250 g ai/ha, scale 0 (no effect) to 100 (complete control)

## Cn1nc(C(F)(F)F)c(C[S+]([O-])c2ccc(F)c[n+]2[O-])c1OCC(F)(F)F (stereo not drawn) [Compound 67]
[1]; 16 g ai/ha, preemergence
  Plant response rating, Groundsel: 0
[1]; 62 g ai/ha, Preemergence
  Groundsel plant response rating: 80
[1]; 125 g ai/ha, preemergence
  Groundsel plant response rating: 98
[1]; Preemergence, 31 g ai/ha
  Plant response rating, Groundsel: 25
[2]; 16 g ai/ha, preemergence
  Plant response rating, Dallisgrass: 0
[2]; 62 g ai/ha, Preemergence
  Dallisgrass plant response rating: 95
[2]; 125 g ai/ha, preemergence
  Dallisgrass plant response rating: 100
[2]; Preemergence, 31 g ai/ha
  Plant response rating, Dallisgrass: 40
[3]; 16 g ai/ha, preemergence
  Plant response rating, Kochia: 0
[3]; 62 g ai/ha, Preemergence
  Kochia plant response rating: 100
[3]; 125 g ai/ha, preemergence
  Kochia plant response rating: 100
[3]; Preemergence, 31 g ai/ha
  Plant response rating, Kochia: 60
[4]; 16 g ai/ha, preemergence
  Plant response rating, Itchgrass: 15
[4]; 62 g ai/ha, Preemergence
  Itchgrass plant response rating: 65
[4]; 125 g ai/ha, preemergence
  Itchgrass plant response rating: 100
[4]; Preemergence, 31 g ai/ha
  Plant response rating, Itchgrass: 25
[5]; 16 g ai/ha, preemergence
  Plant response rating, Signalgrass: 0
[5]; 125 g ai/ha, preemergence
  Signalgrass plant response rating: 98
[5]; Preemergence, 62 g ai/ha
  Plant response rating, Signalgrass: 90
[5]; Preemergence, 31 g ai/ha
  Plant response rating, Signalgrass: 30
[6]
  Plant response rating, Dayflower: 50
[7]; 16 g ai/ha, preemergence
  Plant response rating, Goosegrass: 50
[7]; 62 g ai/ha, Preemergence
  Goosegrass plant response rating: 80
[7]; 125 g ai/ha, preemergence
  Goosegrass plant response rating: 100
[7]; Preemergence, 31 g ai/ha
  Plant response rating, Goosegrass: 70
[8]; Postemergence, 125 g ai/ha
  Plant response rating, Barnyardgrass: 90
[8]; [14]
  Barnyardgrass plant response rating: 90
[8]; [15]
  Barnyardgrass plant response rating: 90
[8]; Preemergence, 500 g ai/ha
  Plant response rating, Barnyardgrass: 100
[9]; 16 g ai/ha, preemergence
  Plant response rating, Purple Nutsedge: 0
[9]; 62 g ai/ha, Preemergence
  Purple Nutsedge plant response rating: 60
[9]; 125 g ai/ha, preemergence
  Purple Nutsedge plant response rating: 95
[9]; Preemergence, 31 g ai/ha
  Plant response rating, Purple Nutsedge: 30
[10]; Postemergence, 125 g ai/ha
  Plant response rating, Velvetleaf: 60
[10]; [14]
  Velvetleaf plant response rating: 90
[10]; [15]
  Velvetleaf plant response rating: 90
[10]; Preemergence, 500 g ai/ha
  Plant response rating, Velvetleaf: 100
[11]; 16 g ai/ha, preemergence
  Plant response rating, Johnsongrass: 35
[11]; 62 g ai/ha, Preemergence
  Johnsongrass plant response rating: 75
[11]; 125 g ai/ha, preemergence
  Johnsongrass plant response rating: 95
[11]; Preemergence, 31 g ai/ha
  Plant response rating, Johnsongrass: 75
[12]; [16]
  Foxtail, Green plant response rating: 100
[12]; [17]
  Foxtail, Green plant response rating: 100
[12]; Postemergence, 31 g ai/ha
  Plant response rating (0 to 100), Foxtail, Green: 0
[12]; Postemergence, 62 g ai/ha, scale 0 to 100, 0 no effect, 100 complete control
  Plant response rating, Foxtail, Green: 45
[12]; [18]
  Plant response rating, Foxtail, Green: 60
[12]; [19]
  Plant response rating, Foxtail, Green: 90
[12]; [20]
  Plant response rating, Foxtail, Green: 100
[12]; [21]
  Foxtail, Green plant response rating: 100
[13]; [16]
  Ryegrass, Italian plant response rating: 100
[13]; [17]
  Ryegrass, Italian plant response rating: 100
[13]; Postemergence, 31 g ai/ha
  Plant response rating (0 to 100), Ryegrass, Italian: 0
[13]; Postemergence, 62 g ai/ha
  Plant response rating (0 to 100), Ryegrass, Italian: 40
[13]; [18]
  Plant response rating, Ryegrass, Italian: 90
[13]; [19]
  Plant response rating, Ryegrass, Italian: 90
[13]; [20]
  Plant response rating, Ryegrass, Italian: 100
[13]; [21]
  Ryegrass, Italian plant response rating: 100
